According to ChEMBL document CHEMBL6182883, “Discovery of a series of novel 3-sulfonamido benzoic acid derivatives as promising P2Y14R antagonists for acute lung injury” (Eur J Med Chem, 2025):

Columns and labels:
[1] = target: T1, P2Y purinoceptor 14 (Homo sapiens) (UniProt Q15391); assay: Antagonist activity at human P2Y14R expressed in HEK293 cells assessed as inhibition of UDPG-induced Ca2+ level at 5 uM by Fluo-4 dye based fluorescence assay relative to control; format: functional, cell-based
T1 sequence (whole entry): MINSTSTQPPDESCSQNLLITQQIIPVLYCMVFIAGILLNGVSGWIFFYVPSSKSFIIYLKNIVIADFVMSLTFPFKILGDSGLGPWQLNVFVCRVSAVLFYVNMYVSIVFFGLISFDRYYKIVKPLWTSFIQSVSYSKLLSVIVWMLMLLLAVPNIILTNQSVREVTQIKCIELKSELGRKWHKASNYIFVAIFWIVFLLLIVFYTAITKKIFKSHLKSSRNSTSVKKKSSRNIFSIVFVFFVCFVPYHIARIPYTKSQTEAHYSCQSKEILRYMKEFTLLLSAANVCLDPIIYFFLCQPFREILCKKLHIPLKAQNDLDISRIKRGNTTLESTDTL

[2] = Aqueous solubility of the compound in pH 4 PBS buffer measured after 24 hrs by shake flask method; format: physicochemical
[3] = Aqueous solubility of the compound in pH 7.4 PBS buffer measured after 24 hrs by shake flask method; format: physicochemical
[4] = target: T2, P2Y purinoceptor 14 (Homo sapiens, UniProt Q15391); assay: Antagonist activity at human P2Y14R expressed in HEK293 cells assessed as inhibition of UDPG-induced Ca2+ level by Fluo-4 dye based fluorescence assay; format: functional, cell-based
T2 sequence (Q15391 whole entry): T1 sequence (whole entry)

| SMILES | inhibition ([1]; filed as antagonist) [%] | also measured |
| --- | --- | --- |
| O=C(O)c1cc(NS(=O)(=O)c2ccc(-c3ccccc3)cc2)cc(-c2ccc(C3CCNCC3)cc2)c1 | 60.5 | – |
| O=C(O)c1cc(-c2ccc(C3CCNCC3)cc2)c2ccc(-c3ccc(C(F)(F)F)cc3)cc2c1 [PPTN] | – | solubility thermodynamic at 24 h [2]: < 10 µg/mL; solubility thermodynamic at 24 h [3]: < 10 µg/mL |
| COc1ccc(S(=O)(=O)Nc2cc(C(=O)O)cc(-c3ccc(C4CCNCC4)cc3)c2)cc1 | 70.8 | – |
| O=C(O)c1cc(NS(=O)(=O)Cc2ccc([N+](=O)[O-])cc2)cc(-c2ccc(C3CCNCC3)cc2)c1 | 88.6 | IC50 [4]: 20.6 nM |
| COc1ccccc1S(=O)(=O)Nc1cc(C(=O)O)cc(-c2ccc(C3CCNCC3)cc2)c1 | – | inhibition [1]: 14.3% |
| O=C(O)c1cc(NS(=O)(=O)c2ccc(-c3ccc(F)cc3)cc2)cc(-c2ccc(C3CCNCC3)cc2)c1 | 59.7 | – |
| O=C(O)c1cc(NS(=O)(=O)c2ccc(-c3ccccc3F)cc2)cc(-c2ccc(C3CCNCC3)cc2)c1 | 43.6 | – |
| O=C(O)c1cc(NS(=O)(=O)Cc2ccccc2F)cc(-c2ccc(C3CCNCC3)cc2)c1 | 80.6 | – |
| COc1cccc(S(=O)(=O)Nc2cc(C(=O)O)cc(-c3ccc(C4CCNCC4)cc3)c2)c1 | 47.8 | – |
| Cc1ccc(S(=O)(=O)Nc2cc(C(=O)O)cc(-c3ccc(C4CCNCC4)cc3)c2)cc1 | 50.6 | – |
| O=C(O)c1cc(NS(=O)(=O)c2ccc(-c3ccc(Cl)cc3)cc2)cc(-c2ccc(C3CCNCC3)cc2)c1 | 79.4 | – |
| O=C(O)c1cc(NS(=O)(=O)c2ccc(Cl)cc2)cc(-c2ccc(C3CCNCC3)cc2)c1 | 80.9 | – |
| O=C(O)c1cc(NS(=O)(=O)CCc2ccccc2)cc(-c2ccc(C3CCNCC3)cc2)c1 | 82.7 | – |
| COc1ccc(S(=O)(=O)Nc2cc(C(=O)O)cc(-c3ccc(C4CCNCC4)cc3)c2)cc1OC | – | inhibition [1]: 23.5% |
| O=C(O)c1cc(NS(=O)(=O)CCc2ccc(Cl)cc2)cc(-c2ccc(C3CCNCC3)cc2)c1 | 92.6 | IC50 [4]: 28.6 nM |
| O=C(O)c1cc(NS(=O)(=O)Cc2ccc(F)cc2)cc(-c2ccc(C3CCNCC3)cc2)c1 | 82.8 | – |
| O=C(O)c1cc(NS(=O)(=O)c2ccc([N+](=O)[O-])cc2)cc(-c2ccc(C3CCNCC3)cc2)c1 | 82.6 | – |
| O=C(O)c1cc(NS(=O)(=O)Cc2ccc(C(F)(F)F)cc2)cc(-c2ccc(C3CCNCC3)cc2)c1 | 96.5 | IC50 [4]: 24.2 nM |
| O=C(O)c1cc(NS(=O)(=O)c2ccc(-c3ccc([N+](=O)[O-])cc3)cc2)cc(-c2ccc(C3CCNCC3)cc2)c1 | 65.1 | – |
